Patent US20240360094A1, “COMPOUND FOR TREATING DISEASES RELATED TO CEREBRAL ISCHEMIC INJURY” (JIANGSU CHIA TAI FENGHAI PHARMACEUTICAL CO., LTD., priority 2021, published 2024)
Read-outs that look alike come from different tables or passages of the source. Marks after values point to notes of the source that are not given here. Each block holds one molecule with its values, some of them ahead of it.

Legend:
[1] = system: Middle cerebral artery occlusion (MCAO) models of SD rats; experiment: Rat cerebral stroke model (MCAO), 28 days, pathological examination of brain; type: in vivo
Method: Middle cerebral artery occlusion (MCAO) models of SD rata were constructed by using the suture occlusion method. The rats were administered with the test compound for 28 consecutive days. The pharmacodynamic evaluation on the test compound for cerebral stroke was obtained based on general observation and neurobehavioral assessment. After anesthesia induction with 3.0% isoflurane in SD rats (240-280 g), the operation was performed and the right common carotid artery (CCA), and the right-side neck area was dissected to reveal the right common carotid artery (CCA), external carotid artery (ECA) and internal carotid artery (ICA). The ECA was ligated. The ICA was temporarily occluded. Sutures were threaded at both the proximal end and the distal end of CCA. The distal end was securely ligated, and a loosely tied knot was placed at the proximal end. A small incision was made on the CCA between these two sutures. A No. 4-0 suture was inserted through the incision of CCA and slowly and gently pushed into the ICA. The threading was stopped temporarily when reaching the artery clamp of ICA. The pre-ligation suture was further tightened. The artery clamp blocking the blood flow in the ICA was removed, allowing the suture occlusion to be advanced into the ICA until it entered the intracranial region. […] The insertion was stopped at the moment, and the time was recorded. The artery clamp on the CCA was removed and the incision was closed after no active bleeding was observed. The ischemic rats were placed at room temperature to keep their body temperature at 37° C., and anesthesia induction could be carried out 120 min later. The suture was slowly and gradually withdrawn when the rats were maintained under anesthesia, so that the proximal end of the suture returned to the ECA, thereby initiating reperfusion of the middle cerebral artery. Animals received the designated dosage immediately (within 10 min) after reperfusion. This dosing regimen continued once daily for a duration of 28 days, with the day of operation being defined as D1 (Day 1). A total of 5 groups were set, sham surgery group, model control group, NBP group (60 mg/kg, p.o., q.d), compound (I) low dose p.o. group (6 mg/kg, p.o., q.d), and a compound (I) high dose p.o. group (20 mg/kg, p.o., q.d). During administration, all animals were subjected to grid walking tests (D7, D14, D21, and D28, 4 times in total) and novel object recognition tests (adaptation for novel object recognition on D26, test on D27). After the completion of the 28-day dosing period, all surviving animals in the study were euthanized, and their brains were rapidly collected for pathological analysis. (3) Pathological examination: 1) the restoration range: samples with a restoration area range of >30% are considered to be good in recovery, while samples with a restoration area range of ≤30% are considered to be poor in recovery. […] In addition, for the compound (I) low dose group and the compound (I) high dose group, the proportion values of animal samples having >10 erythrocyte-containing blood vessels in the restoration area were 100% and 92.3%, respectively, both being no less than 90%.

[2] = Distribution in brain tissues of rats (plasma and brain concentration); type: in vivo; conditions: rat, po, male SD rats, 20 mg/kg p.o.
Method: Plasma and brain tissue samples were collected from the animals at 0.5 h, 1 h, 4 h, and 24 h after administration. Collection of plasma: 0.2 mL of whole blood was collected by using an EP tube containing EDTA-K2 and centrifuged at 3500 g for 10 min, and then the upper plasma was collected and stored at −20° C. Collection of brain tissue: after the animals were euthanized, a proper amount of brain tissues were weighed out and homogenized with methanol in water (80%, w/v) at a ratio of 1:4. The concentration of compound in the plasma and brain tissue samples was quantified by liquid chromatography-tandem mass spectrometry (LC-MS/MS).

[3] = Pharmacokinetic test in rats; type: in vivo, rat; conditions: male SD rats
Method: Male SD rats (weighing 180-260 g) were administered with compound (I) at a dose of 1.0 mg/kg by tail vein injection and at a dose of 10.0 mg/kg orally. Each group consisted of 3 animals. The solvent for administration was a solution of 5% DMSO+5% polyethoxylated castor oil (Cremophor EL) in normal saline. The rats were fasted for about 12 h before administration and were given ad libitum access to food 4 h after administration, and water was available all the time. Blood was collected from the orbit at about 0.2 mL before administration and 5 min, 15 min, 30 min, 1 h, 2 h, 4 h, 6 h, 8 h, and 24 h after administration. The samples were placed in EDTA-K2 anticoagulant EP tubes in an ice bath, and subjected to low-speed centrifugation at 4° C. and 3500 rpm for 10 min to isolate plasma, which was then stored at −20° C. before analysis. The concentration of compound (I) in the plasma was quantified by liquid chromatography-tandem mass spectrometry (LC-MS/MS). Pharmacokinetic parameters were calculated from the analysis results of the samples using WinNonlin software.

[4] = rats, value in literature, cited from earlier work
[5] = Pharmacokinetics of 3-n-butylphthalide in rat plasma (value in literature); type: in vivo; conditions: rats, p.o. 60 mg/kg vs i.v. 10 mg/kg; calculated based on the literature value of AUC0-inf
[6] = system: Middle cerebral artery occlusion (MCAO) models of SD rats; experiment: Rat cerebral stroke model (MCAO), 28 days, novel object recognition test; type: in vivo; conditions: 60 mg/kg p.o. q.d, Mean ± SD
Method: (§1) Middle cerebral artery occlusion (MCAO) models of SD rata were constructed by using the suture occlusion method. The rats were administered with the test compound for 28 consecutive days. The pharmacodynamic evaluation on the test compound for cerebral stroke was obtained based on general observation and neurobehavioral assessment.
(§2) After anesthesia induction with 3.0% isoflurane in SD rats (240-280 g), the operation was performed and the right common carotid artery (CCA), and the right-side neck area was dissected to reveal the right common carotid artery (CCA), external carotid artery (ECA) and internal carotid artery (ICA). The ECA was ligated. The ICA was temporarily occluded. Sutures were threaded at both the proximal end and the distal end of CCA. The distal end was securely ligated, and a loosely tied knot was placed at the proximal end. A small incision was made on the CCA between these two sutures. A No. 4-0 suture was inserted through the incision of CCA and slowly and gently pushed into the ICA. The threading was stopped temporarily when reaching the artery clamp of ICA. The pre-ligation suture was further tightened. The artery clamp blocking the blood flow in the ICA was removed, allowing the suture occlusion to be advanced into the ICA until it entered the intracranial region. […] The insertion was stopped at the moment, and the time was recorded. The artery clamp on the CCA was removed and the incision was closed after no active bleeding was observed. The ischemic rats were placed at room temperature to keep their body temperature at 37° C., and anesthesia induction could be carried out 120 min later. The suture was slowly and gradually withdrawn when the rats were maintained under anesthesia, so that the proximal end of the suture returned to the ECA, thereby initiating reperfusion of the middle cerebral artery. Animals received the designated dosage immediately (within 10 min) after reperfusion. This dosing regimen continued once daily for a duration of 28 days, with the day of operation being defined as D1 (Day 1). A total of 5 groups were set, sham surgery group, model control group, NBP group (60 mg/kg, p.o., q.d), compound (I) low dose p.o. group (6 mg/kg, p.o., q.d), and a compound (I) high dose p.o. group (20 mg/kg, p.o., q.d). During administration, all animals were subjected to grid walking tests (D7, D14, D21, and D28, 4 times in total) and novel object recognition tests (adaptation for novel object recognition on D26, test on D27). After the completion of the 28-day dosing period, all surviving animals in the study were euthanized, and their brains were rapidly collected for pathological analysis.

[7] = system: Middle cerebral artery occlusion (MCAO) models of SD rats; experiment: Rat cerebral stroke model (MCAO), 28 days, grid walking test; type: in vivo; conditions: 60 mg/kg p.o. q.d, Mean ± SD
Method: as §1, §2

[8] = brain, read-out: Measured value in brain tissues Concentration
[9] = plasma, read-out: Measured value in plasma Concentration

concentration at 0.5 h [2, 8]: 8730 ng/g | concentration at 1 h [2, 8]: 5730 ng/g | concentration at 4 h [2, 8]: 5030 ng/g | concentration at 24 h [2, 8]: 285 ng/g | concentration at 0.5 h [2, 9]: 241000 ng/mL | concentration at 1 h [2, 9]: 192000 ng/mL | concentration at 4 h [2, 9]: 182000 ng/mL | concentration at 24 h [2, 9]: 23500 ng/mL | F ([3]; p.o. 10 mg/kg vs i.v. 1 mg/kg): 144.2% | AUC0-inf ([3]; rat, iv, i.v. 1 mg/kg, plasma): 59200 ng·h/mL | AUC0-t ([3]; rat, iv, i.v. 1 mg/kg, plasma): 52500 ng·h/mL | MRT inf ([3]; rat, iv, i.v. 1 mg/kg, plasma): 9.8 h | half-life ([3]; rat, iv, i.v. 1 mg/kg, plasma): 7.5 h | AUC0-inf ([3]; rat, po, p.o. 10 mg/kg, plasma): 854000 ng·h/mL | AUC0-t ([3]; rat, po, p.o. 10 mg/kg, plasma): 703000 ng·h/mL | Cmax ([3]; rat, po, p.o. 10 mg/kg, plasma): 56500 ng/mL | MRT inf ([3]; rat, po, p.o. 10 mg/kg, plasma): 13.2 h | Tmax ([3]; rat, po, p.o. 10 mg/kg, plasma): 0.5 h | half-life ([3]; rat, po, p.o. 10 mg/kg, plasma): 9.6 h
SMILES: CCC/C(O)=C1/C(=O)Oc2ccccc21 [Compound (I), (Z)-3-(1-hydroxybutylidene)benzofuran-2 (3H)-one]
Number of animals with >10 erythrocyte-containing blood vessels ([1]; high dose 20 mg/kg p.o. q.d 28 days, N = 13, infarction restoration area, 20 mg/kg): 12** | Number of animals with >10 erythrocyte-containing blood vessels ([1]; high dose 20 mg/kg p.o. q.d 28 days, N = 13, infarction restoration area, listed as compound (I), 20 mg/kg): 12 | Number of animals with >10 erythrocyte-containing blood vessels ([1]; low dose 6 mg/kg p.o. q.d 28 days, N = 12, infarction restoration area, 6 mg/kg): 12** | Number of animals with >10 erythrocyte-containing blood vessels ([1]; low dose 6 mg/kg p.o. q.d 28 days, N = 12, infarction restoration area, listed as compound (I), 6 mg/kg): 12

F [5]: 16.6* % | concentration at 0.5 h [2, 8]: 28.5 ng/g | concentration at 1 h [2, 8]: 22.8 ng/g | concentration at 4 h [2, 8]: 10.2 ng/g | concentration at 0.5 h [2, 9]: 26 ng/mL | concentration at 1 h [2, 9]: 19.1 ng/mL | concentration at 4 h [2, 9]: 7.2 ng/mL | concentration at 24 h [2, 9]: 1.7 ng/mL
SMILES: CCCCC1OC(=O)c2ccccc21 (stereo not drawn) [NBP, 3-n-butylphthalide]
AUC0-inf ([4]; i.v. 10 mg/kg): 8620.0 ng·h/mL | AUC0-t ([4]; i.v. 10 mg/kg): 7230.0 ng·h/mL | MRTinf ([4]; i.v. 10 mg/kg): 2.4 h | T1/2 ([4]; i.v. 10 mg/kg): 2.2 h | AUC0-inf ([4]; p.o. 60 mg/kg): 8560.0 ng·h/mL | AUC0-t ([4]; p.o. 60 mg/kg): 7110.0 ng·h/mL | Cmax ([4]; p.o. 60 mg/kg): 2900.0 ng/mL | MRTinf ([4]; p.o. 60 mg/kg): 3.8 h | T1/2 ([4]; p.o. 60 mg/kg): 2.83 h | Tmax ([4]; p.o. 60 mg/kg): 0.7 h | Number of samples Restoration area > 30% ([1]; 60 mg/kg p.o. q.d 28 days, N = 14, model control 3 of 17): 3 | Number of samples Restoration area ≤ 30% ([1]; 60 mg/kg p.o. q.d 28 days, N = 14, model control 14 of 17): 11 | Number of animals with ≤10 erythrocyte-containing blood vessels ([1]; 60 mg/kg p.o. q.d 28 days, N = 15, infarction restoration area, model control 10 of 17): 1 | Proportion of samples having >10 erythrocyte-containing blood vessels ([1]; 60 mg/kg p.o. q.d 28 days, model control 41.2): 93.3% | Proportion of samples showing good recovery ([1]; 60 mg/kg p.o. q.d 28 days, restoration area >30%, model control 17.6): 21.4% | Sniffing time Familiar object ([6]; model control 2.70 ± 2.22): 1.60 ± 1.01 S | Sniffing time Novel object ([6]; model control 3.82 ± 3.40): 4.94 ± 3.60 S | Recognition index Familiar object (FRI) ([6]; model control 45.19 ± 21.94): 29.03 ± 22.57% | Recognition index Novel object (NRI) ([6]; model control 54.81 ± 21.94): 70.97±22.57% | Misstep frequency ([7]; 1 W after operation, model control 7.24 ± 3.59): 7.37±3.03 times | Misstep frequency ([7]; 2 W after operation, model control 5.35 ± 4.40): 8.10 ± 2.97 times | Misstep frequency ([7]; 3 W after operation, model control 4.09 ± 3.140): 6.27 ± 2.890 times | Misstep frequency ([7]; 4 W after operation, model control 1.59 ± 0.84): 2.10 ± 1.46 times
